The record followed here is patent US9492405B2, “Use of fenoterol and fenoterol analogues in the treatment of glioblastomas and astrocytomas” (The United States of America, as represented by the …, priority 2010, dated 2016).

Data set [1] can be described thus: Brain-to-plasma distribution of [3H]-(R,R)-methoxyfenoterol after single IV dose. The data set is classed as in vivo. The following applies: rat, IV. Here is the method:
An overview of the research study design for evaluating the brain-to-plasma distribution of [^3H]
(specific activity 57 Ci/mmol); vehicle was sterile saline, 0.9% sodium chloride, USP. Dose formulations were prepared on the day of the study. The amount of radioactivity in the dose formulation was determined by liquid scintillation. The study lasted for an hour and radioactivity levels in plasma and brain tissue were evaluated at the conclusion of the study. Approximately 5 mls of whole blood was collected. Blood samples were collected via cardiac puncture, transferred into a tube containing K3EDTA as the anticoagulant and kept on wet ice until processed to plasma. To generate plasma, samples were centrifuged within 15 minutes of collection at 2,500 RPM for 15 minutes at room temperature. Plasma was divided equally into three labeled cryovials and stored on ample dry ice until transferred to a freezer set at ≦−20° C. for storage until analysis. Duplicate aliquots were weighed and then combined with scintillation cocktail. The [^3H] radioactivity was determined on a liquid scintillation counter. Brain samples were snap frozen in liquid nitrogen and stored at ≦−70° C. until analysis. Whole brain tissue was homogenized and the weight of the homogenate was determined. Duplicate aliquots from the homogenate were weighed, solubilized and then combined with scintillation cocktail. The [^3H] radioactivity was determined on a liquid scintillation counter.

Another data set deals with 1321N1 xenograft. As to the kind of experiment: 1321N1 xenograft implanted in the flank of SKID mice. Format: in vivo. The following applies: IP twice a day; day 3-10 30 mg/kg/day, day 10-42 50 mg/kg/day.
The nature of another data set: in vivo. The following applies: rat, IV 5 mg/kg. Here is the method:
Dose calculations (mg/kg) were based on the individual body weight measured on the day of treatment. Study duration for pharmacokinetic studies was 6 hours. […] Urine was collected for 0-6 hours and 6 to 24 hours from 3 rats in each treatment group.
In the two-compartment model, the drug distributes into two compartments, the central compartment and the tissue, or peripheral compartment. The central compartment represents the blood, extracellular fluid, and highly perfused tissues. The drug distributes rapidly and uniformly in the central compartment. A second compartment, known as the tissue or peripheral compartment, contains tissues in which the drug equilibrates more slowly. Drug transfer between the two compartments is assumed to take place by first-order processes.
The following abbreviations are utilized in Table 4 below: alpha—macro rate constant associated with the distribution phase; beta—macro rate constant associated with the elimination phase; A, B—zero time intercept associated with the alpha phase and beta phase, respectively; AUC—area under the curve; T1/2 (K10)—half-life associated with the rate constant K10; K10—elimination rate—rate at which the drug leaves the system from the central compartment; K12—rate at which drug enters tissue compartment from the central compartment; K21—rate at which drug enters central compartment from tissue compartment; V1—volume of distribution of the central compartment; V2—volume of distribution of the tissue compartment; Vss—volume of distribution at steady state; and Cl—clearance.

Several values for one entry are separate records, joined by “and”; a condition that tells them apart may be missing. Equal entries are not always repeated.

Broadly, the AUC is the area under the concentration-time curve, a measure of exposure. A higher AUC goes with high exposure. As a reminder, the Vss is a proportionality between amount in the body and measured concentration, not a real space.

Take `COc1ccc(C[C@@H](C)NC[C@H](O)c2cc(O)cc(O)c2)cc1.O=C(O)/C=C/C(=O)O` [(R,R)-2, (R,R)-(−)-1-p-Methoxyphenyl-2-(β-3′,5′-dihydroxy-phenyl-β-oxy)ethylaminopropane Fumarate]: in data set [1], the “passage through the blood brain barrier” value is reported as “capable of passing through the blood brain barrier”. Also, the “growth of 1321N1 xenograft” value with 1321N1 xenograft is “inhibits astrocytoma growth in vivo”. Further, the area under the curve (AUC) in the data set “in vivo” came to 96.1011 µg·min/mL. In addition, in “in vivo”, the Cl stood at 15.40 mL/min. For the same compound, in “in vivo”, the K12 was found to be 0.1309 min⁻¹. The compound further yielded a K21 in the data set “in vivo” of 0.0203 min⁻¹. The “T1/2 (K10)” value in “in vivo” stood at 13.23 min. Moreover, in the data set “in vivo”, the Vss was found to be 2189.02 mL. Further, the “Plasma concentration, Average” value turned out to be 2120 ng/mL in “in vivo” (5 min); 580 ng/mL in “in vivo” (15 min); 410 ng/mL in “in vivo” (30 min); 260 ng/mL in the data set “in vivo” (60 min); 170 ng/mL in “in vivo” (120 min); 120 ng/mL in the data set “in vivo” (240 min). Further, the entries for the “Plasma concentration, Average” value in the data set “in vivo” (300 min) and in “in vivo” (360 min) were 70 ng/mL and 60 ng/mL, respectively. In addition, in “in vivo” (300 min, individual rats, listed as (R,R)-methoxyfenoterol), the Individual plasma concentration is 0.06 ug/ml and 0.07 ug/ml (3×) and 0.09 ug/ml. The compound further registered a V1 in the data set “in vivo” (central compartment) of 294.01 mL. In addition, the K10 in “in vivo” (elimination rate) was 0.0524 min⁻¹. The compound also returned a V2 in the data set “in vivo” (tissue compartment) of 1895.00 mL. The same compound gave an Alpha in the data set “in vivo” (two-compartment open model) of 0.1982 min⁻¹. The compound further gave a Beta in “in vivo” (two-compartment open model) of 0.0054 min⁻¹. The compound also registered an A in “in vivo” (two-compartment open model, zero time intercept alpha phase) of 4.6437 µg/mL. The compound further showed a B in “in vivo” (zero time intercept beta phase) of 0.3900 µg/mL.
